Test results reported in US7427686B2, “(3R, 4R)-trans-3, 4-diarylchroman derivatives and a method for the prevention and/or treatment of estrogen dependent diseases” (Counsel of Scientific and Industrial Research, priority 2003, dated 2008).
Like-named read-outs stand apart in the source and are kept apart here.

Columns and labels:
[1] = system: PTH-induced resorption of 45Ca from chick fetal bones in culture; assay: Antiosteoporosis (antiresorptive) activity in vitro, chick fetal bone assay; format: cell-based; settings: for T/C ratio: 100 μM, inhibition in PTH-induced resorption of 45Ca
Protocol: Test solutions of the compounds of the present invention are prepared in appropriate solvents in concentration range of 5 millimolar to 400 millimolar, most preferably in concentrations of 20 millimolar. 5 μl of each concentration are used for evaluation of antiresorptive activity in vitro. In control experiments, 5 μl of appropriate solvent is used in lieu of test compound. Femur bones are isolated from chick embryos on day 11 post-ovulation. The adhering soft connective tissue is completely removed. Each femur bone is then placed in a drop of phosphate buffered saline (PBS) and is transferred to BGJb culture medium containing ^45CaCl2 and incubated for 2 h. Labeled femur bones are washed 2-3 times with PBS and transferred to BGJb medium containing parathyroid hormone and cultured for 96 h in the presence or absence of the compound of invention or the vehicle in BGJb medium. Contralateral femur of each fetus serves as corresponding control. Culture medium with the respective treatment in each well is changed after 48 h. On termination of the culture at 96 h, bones are transferred to 0.1 N HCl for 24 h. Radioactivity due to ^45Ca in the spent medium collected at 48 and 96 h of culture and HCl extract at 96 h of culture is quantified by Liquid Scintillation Spectrophotometer in 10 ml of the scintillation fluid. Bone resorbing activity is expressed as percentage of ^45Ca released into the culture medium and the effect of the compound of invention as percent of the corresponding contra-lateral control or T/C ratio as shown below: [formula] Appropriate solvents are selected from solvents like water, normal (physiological) saline, phosphate buffered saline, phosphate buffer, DMSO alone or in a suitable combinations thereof.

adult female rats = assay: Post-coital antifertility activity; format: in vivo, rat; settings: for % Efficacy: oral
Protocol: Adult female rats are caged overnight with coeval males of proven fertility and their vaginal smears are checked on the following morning. The day of presence of spermatozoa in the vaginal smear is taken as day 1 of pregnancy. […] Animals of all the groups are autopsied on day 10 post-coitum and number and status of corpora lutea and implantation sites in each rat are recorded. The compounds of the present invention are considered active if there is complete absence of implantations in the uterus of all rats, in comparison to presence of normal implantations in the uterus of rats of vehicle control group.

estrogen receptors = target: T1, estrogen receptors (Rattus norvegicus, UniProt P06211); assay: Relative binding affinity (RBA) to estrogen receptors, 3H-estradiol competition assay; settings: rat uterine cytosol, 3H-E2, 18 hrs at 4° C.; relative to 17-beta-estradiol = 100
T1 construct: Aliquot of uterine cytosol (200 μl; 2 uteri per ml) prepared in TEA buffer; from tissue; host or cells: uterine cytosol of immature estradiol-primed 20-21 day old rats
T1 sequence (P06211 1-600): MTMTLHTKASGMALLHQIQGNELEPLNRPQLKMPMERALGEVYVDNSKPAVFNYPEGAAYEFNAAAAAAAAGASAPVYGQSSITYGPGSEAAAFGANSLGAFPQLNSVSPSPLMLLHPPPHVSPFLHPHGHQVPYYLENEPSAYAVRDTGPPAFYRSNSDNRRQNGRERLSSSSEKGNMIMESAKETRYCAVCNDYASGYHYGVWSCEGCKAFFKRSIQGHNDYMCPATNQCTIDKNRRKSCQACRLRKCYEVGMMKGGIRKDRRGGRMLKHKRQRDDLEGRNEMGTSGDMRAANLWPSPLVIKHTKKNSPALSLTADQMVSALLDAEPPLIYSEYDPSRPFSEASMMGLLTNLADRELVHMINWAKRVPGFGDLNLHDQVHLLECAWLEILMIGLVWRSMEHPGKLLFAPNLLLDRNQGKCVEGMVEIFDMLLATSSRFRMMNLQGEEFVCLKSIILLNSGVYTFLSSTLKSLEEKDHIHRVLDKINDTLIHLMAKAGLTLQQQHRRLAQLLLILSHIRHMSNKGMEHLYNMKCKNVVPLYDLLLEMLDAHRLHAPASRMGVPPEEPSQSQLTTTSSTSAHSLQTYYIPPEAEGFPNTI

[2] = system: immature ovariectomized rats; assay: Estrogen agonistic activity (uterine weight and uterine morphometry); format: in vivo, rat; settings: for Percent increase in uterine weight (percent of OVX + vehicle treatment group): 3 days
Protocol: Twenty-one-day-old immature female rats are bilaterally ovariectomized under light ether anaesthesia and, after post-operative rest for 7 days, are randomized into different treatment groups. Each rat receives the compound of the invention once daily for 3 consecutive days on days 28-30 of age. A separate group of animals receiving only the vehicle for similar duration serves as control. At autopsy 24 h after the last treatment on day 31 of age, vaginal smear of each rat is taken and uterus is carefully excised, gently blotted, weighed and fixed for histology and histomorphometry using image analysis. Premature opening of vagina, cornification of vaginal epithelium, increase in uterine fresh weight, total uterine and endometrial area and uterine luminal epithelial cell height are taken as parameters for evaluation of estrogen agonistic activity in comparison to rats of vehicle control group.
For image analysis in estrogen agonistic activity evaluation studies, paraffin sections (6 μm thick) of the uterus stained with haematoxylin and eosin were analysed microscopically. To determine changes in uterine tissue components, areas of whole uterus and endometrium and the thickness of uterine epithelium were measured using a computer-image analysis system (BioVis, Expert Vision, India). Briefly, microscopic images of uterus acquired through a CCD camera were loaded in to the image analysis program and spatially calibrated against a stage micrometer image taken at the same magnification. Using thresholding and line tools, the regions for measurements were selected and the area (mm^2) of whole uterine transection excluding the luminal space, the area (mm^2) of the endometrium only, and the thickness (μm) of luminal epithelial lining were measured. Luminal epithelial thickness data was the Average of measurements made at 6 randomly selected sites are taken as parameters for evaluation.

[3] = system: immature ovariectomized rats; assay: Estrogen antagonistic activity (EE induced uterine weight gain); format: in vivo, rat; settings: 3 days
Protocol: Twenty-one-day-old immature female rats are bilaterally ovariectomized under light ether anaesthesia and after post-operative rest for 7 days, are randomized into different treatment groups. Each rat receives the compounds of the invention and 0.02 mg/kg dose of 17-alfa-ethynylestradiol in 10% ethanol-distilled water once daily for 3 consecutive days on days 28-30 of age. A separate group of animals-receiving only 17-alfa-ethynylestradiol (0.02 mg/kg) in 10% ethanol-distilled water for similar duration are used for comparison. At autopsy on day 31 of age, vaginal smear of each rat is taken and uterus is carefully excised, gently blotted, weighed and fixed for histology and histomorphometry using image analysis. Inhibition in 17-alfa-ethynylestradiol-induced premature opening of vagina, cornification of vaginal epithelium, increase in uterine fresh weight, total uterine and endometrial area and uterine luminal epithelial cell height are taken as parameters for evaluation of estrogen antagonistic activity.

MCF-7 cells = assay: cells; format: cell-based, human
Protocol: The procedure is based on the following methods: New colorimetric assay for anticancer drug screening, Skehan et al., J Natn Cancer Inst, 82,1107, 1990 and Feasibility of a high-flux anticancer drug screen using a diverse panel of cultured human tumor cell lines 83,757, 1991.
A fully confluent flask of MCF-7 cells in trypsinized and 10^4 cells/well are plated in a 96 welled flat bottomed plate in 200 μl Minimum Essential Medium (MEM), pH 7.4 and allowed to attach for 24 h at 37° C. in a humidified CO2 incubator. Subsequently, the compound of invention dissolved in DMSO or ethanol is added at a specified concentration and further incubated for 48 h as before. The cells are then fixed in 50 μl cold 50% TCA and incubated for 1 h at 4° C. The supernatant is discarded and the plate is washed five times with deionized water and air dried. 100 μl of 0.4% (w/v) Sulforhodamine B (SRB) in 1% acetic acid is added to each well and incubated at room temperature for 30 minutes. Unbound SRB is removed by five washes with chilled 1% acetic acid and the plate is air dried. 200 μl of unbuffered 10 mM Tris base is added to solublize the bound stain for 5 minutes at room temperature and O.D. is read at 560 nm in a plate reader. The graph is plotted between O.D. and concentration and LC50 is calculated with respect to tamoxifen, which is used as a positive control.

[4] = 0.025 mg/kg daily, days 1-5 post-coitum
[5] = 0.05 mg/kg daily, days 1-5 post-coitum
[6] = 0.1 mg/kg daily, days 1-7 post-coitum
[7] = 0.05 mg/kg daily with 0.02 mg/kg 17-alfa-ethynylestradiol
[8] = 0.1 mg/kg daily, days 1-5 post-coitum
[9] = cultured MCF-7 cells, 48 h, read-out: LC50 (the source's name)

COc1ccc2c(c1)OC(C)(C)[C@@H](c1ccccc1)[C@@H]2c1ccc(OC[C@H]2CO2)cc1 (relative stereo) [Example number 1]
T/C ratio [1]: 0.59

CCCCNC[C@@H](O)COc1ccc([C@@H]2c3ccc(OC)cc3OC(C)(C)[C@H]2c2ccccc2)cc1 (relative stereo) [Example number 2, 3R,4R-trans-2,2-dimethyl-3-phenyl-4-(4-[{2R)-(3-n-butylamino-2-hydroxy}propyloxy]-phenyl)-7-methoxychroman]
% Efficacy (adult female rats; [4]): 67% | % Efficacy (adult female rats; [5]): 100% | % Efficacy (adult female rats; [6]): 100% | % Efficacy (adult female rats; 0.5 mg/kg, day 1 post-coitum): 100% | % Efficacy (adult female rats; 1 mg/kg, day 1 post-coitum): 100% | MED (prevention of pregnancy) (adult female rats; rats, administered during the pre-implantation period): 0.05 mg/kg | RBA (estrogen receptors): 5.45 | Endometrium Epithelial cell height ([2]; 0.05 mg/kg daily): 8.69 μm | Endometrium Total area ([2]; 0.05 mg/kg daily): 0.08 mm^2 | Uterus Total area ([2]; 0.05 mg/kg daily): 0.175 mm^2 | Percent increase in uterine weight (percent of OVX + vehicle treatment group) ([2]; 0.05 mg/kg daily): 38% | estrogenic activity at the MED ([2]; at the MED (0.05 mg/kg)): devoid of any estrogenic activity | Percent inhibition in EE induced uterine weight gain [3, 7]: 09%

CCCCNC[C@H](O)COc1ccc([C@@H]2c3ccc(OC)cc3OC(C)(C)[C@H]2c2ccccc2)cc1 (relative stereo) [Example number 7]
% Efficacy (adult female rats; [4]): Inactive | % Efficacy (adult female rats; [5]): 100% | % Efficacy (adult female rats; [8]): 100% | % Efficacy (adult female rats; 0.5 mg/kg, day 1 post-coitum): 50% | % Efficacy (adult female rats; 1 mg/kg, day 1 post-coitum): 100% | Endometrium Epithelial cell height ([2]; 0.05 mg/kg daily): 6.17 μm | Endometrium Total area ([2]; 0.05 mg/kg daily): 0.13 mm^2 | Uterus Total area ([2]; 0.05 mg/kg daily): 0.35 mm^2 | Percent increase in uterine weight (percent of OVX + vehicle treatment group) ([2]; 0.05 mg/kg daily): 11% | T/C ratio [1]: 0.41 | Percent inhibition in EE induced uterine weight gain [3, 7]: 31%

COc1ccc2c(c1)OC(C)(C)[C@@H](c1ccccc1)[C@@H]2c1ccc(OC[C@@H](O)CN2CCCC2)cc1 (relative stereo) [Example number 8]
% Efficacy (adult female rats; [5]): 100% | % Efficacy (adult female rats; [8]): 100% | % Efficacy (adult female rats; 0.5 mg/kg, day 1 post-coitum): 100% | % Efficacy (adult female rats; 1 mg/kg, day 1 post-coitum): 100% | RBA (estrogen receptors): 6.6 | Endometrium Epithelial cell height ([2]; 0.05 mg/kg daily): 17.25 μm | Endometrium Total area ([2]; 0.05 mg/kg daily): 0.35 mm^2 | Uterus Total area ([2]; 0.05 mg/kg daily): 0.67 mm^2 | Percent increase in uterine weight (percent of OVX + vehicle treatment group) ([2]; 0.05 mg/kg daily): 53% | Percent inhibition in EE induced uterine weight gain [3, 7]: 49%

COc1ccc2c(c1)OC(C)(C)[C@@H](c1ccccc1)[C@@H]2c1ccc(OCC2CO2)cc1 (relative stereo) [Example number 10, 3R,4R-Trans-2,2-dimethyl-3-phenyl-4-(4-(2,3-epoxypropyloxy)-phenyl)-7-methoxychroman]
T/C ratio [1]: 0.79

COc1ccc2c(c1)OC(C)(C)[C@@H](c1ccccc1)[C@@H]2c1ccc(OCC(O)CN2CCCC2)cc1 (relative stereo) [Example number 12, 3R,4R-Trans-2,2-dimethyl-3-phenyl-4-(4-(2-hydroxy-3-pyrrolidinopropyloxy)-phenyl)-7-methoxy chroman]
CC50 (MCF-7 cells; [9]): 18.2 µM | % Efficacy (adult female rats; [5]): 50% | % Efficacy (adult female rats; [6]): 100% | Endometrium Epithelial cell height ([2]; 0.1 mg/kg daily): 15.93 μm | Endometrium Total area ([2]; 0.1 mg/kg daily): 0.27 mm^2 | Uterus Total area ([2]; 0.1 mg/kg daily): 0.56 mm^2 | Percent increase in uterine weight (percent of OVX + vehicle treatment group) ([2]; 0.10 mg/kg daily): 120% | T/C ratio [1]: 0.77 | Percent inhibition in EE induced uterine weight gain ([3]; 0.1 mg/kg daily with 0.02 mg/kg 17-alfa-ethynylestradiol): 38%

COc1ccc2c(c1)OC(C)(C)[C@@H](c1ccccc1)[C@@H]2c1ccc(OCC(O)CN2CCCCC2)cc1 (relative stereo) [Example number 13, 3R,4R-Trans-2,2-dimethyl-3-phenyl-4-(4-(2-hydroxy-3-piperidinopropyloxy)-phenyl)-7-methoxychroman]
CC50 (MCF-7 cells; [9]): 17.8 µM

C#C[C@]1(O)CC[C@H]2[C@@H]3CCc4cc(O)ccc4[C@H]3CC[C@@]21C [17-alfa-Ethynylestradiol, reference compound]
Endometrium Epithelial cell height ([2]; 0.01 mg/kg daily): 33.65 μm | Endometrium Total area ([2]; 0.01 mg/kg daily): 0.57 mm^2 | Uterus Total area ([2]; 0.01 mg/kg daily): 1.21 mm^2 | Percent increase in uterine weight (percent of OVX + vehicle treatment group) ([2]; 0.01 mg/kg daily): 419%

O=C(c1ccc(OCCN2CCCCC2)cc1)c1c(-c2ccc(O)cc2)sc2cc(O)ccc12 [Raloxifene, reference compound]
T/C ([1]; comparator, concentration not given): 0.6

CC/C(=C(\c1ccccc1)c1ccc(OCCN(C)C)cc1)c1ccccc1 [Tamoxifen, reference compound]
CC50 (MCF-7 cells; Homo sapiens, MCF7, 48 h, read-out: LC50): 14.2 µM
